According to PubChem BioAssay AID588642 (The Scripps Research Institute Molecular Screening Center, 2011):
Activity calls are given as the source filed them.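 The calls were made as follows: active = MAPK1 kinase protein level shifted by at least 30% from solvent-only cells, either down or up; inactive = shift in protein level under 30% either way.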

These molecules were tested against Mitogen-activated protein kinase 1 (Homo sapiens) (UniProt P28482) (assay: MAPK1 abundance shift in treated cells – cell-based, HCT116 colorectal carcinoma, chemiluminescent western blot, counter-screen for KLF5 inhibitor project, late-stage follow-up (AID 588642)). Settings: HCT116 ERK1/2 protein level, 24 h, at 10 µM, active compounds read high.
Chain of Mitogen-activated protein kinase 1 (Homo sapiens) (P28482 whole entry, looked up): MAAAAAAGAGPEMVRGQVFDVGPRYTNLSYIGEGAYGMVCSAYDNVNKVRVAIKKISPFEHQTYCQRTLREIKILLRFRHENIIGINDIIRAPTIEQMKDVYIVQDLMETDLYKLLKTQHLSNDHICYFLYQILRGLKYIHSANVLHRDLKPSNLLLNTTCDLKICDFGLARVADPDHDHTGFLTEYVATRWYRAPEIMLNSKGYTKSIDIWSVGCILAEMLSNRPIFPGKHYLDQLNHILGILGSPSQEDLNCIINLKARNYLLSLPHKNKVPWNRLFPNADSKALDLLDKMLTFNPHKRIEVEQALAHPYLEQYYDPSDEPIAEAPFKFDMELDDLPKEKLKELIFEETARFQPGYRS

Row | inhibition | SMILES
1 | 4.62% (inactive) | CN(C(=O)COC(=O)/C=C/c1cccc([N+](=O)[O-])c1)C1CCS(=O)(=O)C1 (stereo not drawn)
2 | 3.03% (inactive) | CN(C(=O)CNC(=O)/C=C/c1cccc(Cl)c1)C1CCS(=O)(=O)CC1
3 | 5.48% (inactive) | CN(C(=O)CNC(=O)/C=C/c1cccc(Cl)c1)C1CCS(=O)(=O)C1 (stereo not drawn)
